Results: PMC9829398 (Plant Biotechnology Journal, 2022)
Entries after “also recorded” stand apart in the source; their conditions may differ.

How the values were obtained:
[1] = test system: Ralstonia solanacearum; assay type: in vivo, tobacco; conditions: roots pretreated twice with 3 mL of 5 μM
[2] = test system: THE1‐CD; experiment: THE1-CD kinase activity (autophosphorylation); assay type: biochemical, Arabidopsis thaliana; conditions: 5 μM
[3] = test system: PER5; conditions: 5 μM for 24 h, confocal microscopy
[4] = test system: tobacco roots; experiment: RNA-seq of tobacco roots (DEGs, GO and KEGG classification and enrichment); assay type: in vivo
[5] = biological target: FER‐CD (Arabidopsis thaliana, UniProt Q9SCZ4); experiment: biochemical
Chain of FER‐CD (Q9SCZ4 469-895): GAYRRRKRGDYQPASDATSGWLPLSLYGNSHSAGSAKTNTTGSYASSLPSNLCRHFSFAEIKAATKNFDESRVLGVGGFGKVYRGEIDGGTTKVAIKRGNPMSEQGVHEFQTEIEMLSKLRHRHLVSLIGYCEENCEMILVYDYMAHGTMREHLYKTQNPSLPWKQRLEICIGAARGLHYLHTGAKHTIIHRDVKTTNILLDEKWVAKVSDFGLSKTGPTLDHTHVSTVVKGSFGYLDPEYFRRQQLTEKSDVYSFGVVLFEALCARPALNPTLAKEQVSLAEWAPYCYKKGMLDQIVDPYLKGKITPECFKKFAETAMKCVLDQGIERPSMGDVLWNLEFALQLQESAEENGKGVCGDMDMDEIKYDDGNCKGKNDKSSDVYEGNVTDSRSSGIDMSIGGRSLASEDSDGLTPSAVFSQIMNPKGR

[6] = test system: FRK1; conditions: 5 μM for 24 h, confocal microscopy
[7] = test system: Arabidopsis Col‐0 and fer‐4 seedlings; experiment: Growth of Arabidopsis seedlings (root length, shoot fresh weight); conditions: 5 μM for 3 days, vs ddH2O (mock) and lapatinib
[8] = test system: Ralstonia solanacearum; assay type: in vivo, tomato; conditions: roots pretreated twice with 3 mL of 5 μM
[9] = KEGG ko00040 Pentose and glucuronate interconversions
[10] = KEGG ko00052 Galactose metabolism
[11] = KEGG ko00062 Fatty acid elongation
[12] = KEGG ko00071 Fatty acid degradation
[13] = KEGG ko00073 Cutin, suberine and wax biosynthesis
[14] = KEGG ko00100 Steroid biosynthesis
[15] = KEGG ko00250 Alanine, aspartate and glutamate metabolism
[16] = KEGG ko00270 Cysteine and methionine metabolism
[17] = KEGG ko00290 Valine, leucine and isoleucine biosynthesis
[18] = KEGG ko00330 Arginine and proline metabolism
[19] = KEGG ko00350 Tyrosine metabolism
[20] = KEGG ko00360 Phenylalanine metabolism
[21] = KEGG ko00410 beta-Alanine metabolism
[22] = KEGG ko00430 Taurine and hypotaurine metabolism
[23] = KEGG ko00460 Cyanoamino acid metabolism
[24] = KEGG ko00480 Glutathione metabolism
[25] = KEGG ko00500 Starch and sucrose metabolism
[26] = KEGG ko00511 Other glycan degradation
[27] = KEGG ko00520 Amino sugar and nucleotide sugar metabolism
[28] = KEGG ko00531 Glycosaminoglycan degradation
[29] = KEGG ko00561 Glycerolipid metabolism
[30] = KEGG ko00564 Glycerophospholipid metabolism
[31] = KEGG ko00590 Arachidonic acid metabolism
[32] = KEGG ko00591 Linoleic acid metabolism
[33] = KEGG ko00592 alpha-Linolenic acid metabolism
[34] = KEGG ko00603 Glycosphingolipid biosynthesis - globo series
[35] = KEGG ko00604 Glycosphingolipid biosynthesis - ganglio series
[36] = KEGG ko00650 Butanoate metabolism
[37] = KEGG ko00730 Thiamine metabolism
[38] = KEGG ko00760 Nicotinate and nicotinamide metabolism
[39] = KEGG ko00770 Pantothenate and CoA biosynthesis
[40] = KEGG ko00904 Diterpenoid biosynthesis
[41] = KEGG ko00905 Brassinosteroid biosynthesis
[42] = KEGG ko00906 Carotenoid biosynthesis
[43] = KEGG ko00908 Zeatin biosynthesis
[44] = KEGG ko00909 Sesquiterpenoid and triterpenoid biosynthesis
[45] = KEGG ko00910 Nitrogen metabolism
[46] = KEGG ko00940 Phenylpropanoid biosynthesis
[47] = KEGG ko00941 Flavonoid biosynthesis
[48] = KEGG ko00950 Isoquinoline alkaloid biosynthesis
[49] = KEGG ko00960 Tropane, piperidine and pyridine alkaloid biosynthesis
[50] = KEGG ko00980 Metabolism of xenobiotics by cytochrome P450
[51] = KEGG ko00982 Drug metabolism - cytochrome P450
[52] = KEGG ko01040 Biosynthesis of unsaturated fatty acids
[53] = KEGG ko03320 PPAR signaling pathway
[54] = KEGG ko04010 MAPK signaling pathway
[55] = KEGG ko04011 MAPK signaling pathway - yeast
[56] = KEGG ko04020 Calcium signaling pathway
[57] = KEGG ko04022 cGMP-PKG signaling pathway
[58] = KEGG ko04075 Plant hormone signal transduction
[59] = KEGG ko04140 Regulation of autophagy
[60] = KEGG ko04211 Longevity regulating pathway
[61] = KEGG ko04212 Longevity regulating pathway - worm
[62] = KEGG ko04370 VEGF signaling pathway
[63] = KEGG ko04380 Osteoclast differentiation
[64] = KEGG ko04614 Renin-angiotensin system
[65] = KEGG ko04626 Plant-pathogen interaction
[66] = KEGG ko04650 Natural killer cell mediated cytotoxicity
[67] = KEGG ko04660 T cell receptor signaling pathway
[68] = KEGG ko04662 B cell receptor signaling pathway
[69] = KEGG ko04712 Circadian rhythm - plant
[70] = KEGG ko04720 Long-term potentiation
[71] = KEGG ko04723 Retrograde endocannabinoid signaling
[72] = KEGG ko04724 Glutamatergic synapse
[73] = KEGG ko04810 Regulation of actin cytoskeleton
[74] = KEGG ko04920 Adipocytokine signaling pathway
[75] = KEGG ko04921 Oxytocin signaling pathway
[76] = KEGG ko04922 Glucagon signaling pathway
[77] = KEGG ko04974 Protein digestion and absorption
[78] = KEGG ko04975 Fat digestion and absorption
[79] = tobacco roots, 5 μM irrigated twice, coregulated genes, vs DMSO

SMILES: c1nc2nc(Nc3ccc(N4CCOCC4)cc3)nc(NC3CCCCC3)c2[nH]1 [Reversine]
- Control of tobacco bacterial wilt [1]: alleviated tobacco bacterial wilt; also recorded: alleviated soil‐borne diseases
- Inhibition rate of THE1-CD kinase activity [2]: lower than 55%
- Expression of PER5 in roots [3]: did not affect the expression levels
- Enrichment_score [4, 9]: 2.934
- ListHits [4, 9]: 15
- Enrichment_score [4, 10]: 3.3846
- ListHits [4, 10]: 8
- Enrichment_score [4, 11]: 4.956
- ListHits [4, 11]: 8
- Enrichment_score [4, 12]: 1.21
- ListHits [4, 12]: 2
- Enrichment_score [4, 13]: 7.653
- ListHits [4, 13]: 15
- Enrichment_score [4, 14]: 3.7618
- ListHits [4, 14]: 6
- Enrichment_score [4, 15]: 2.781
- ListHits [4, 15]: 7
- Enrichment_score [4, 16]: 1.037
- ListHits [4, 16]: 5
- Enrichment_score [4, 17]: 0.913
- ListHits [4, 17]: 1
- Enrichment_score [4, 18]: 1.626
- ListHits [4, 18]: 4
- Enrichment_score [4, 19]: 1.051
- ListHits [4, 19]: 2
- Enrichment_score [4, 20]: 3.252
- ListHits [4, 20]: 6
- Enrichment_score [4, 21]: 0.7434
- ListHits [4, 21]: 2
- Enrichment_score [4, 22]: 2.082
- ListHits [4, 22]: 1
- Enrichment_score [4, 23]: 1.927
- ListHits [4, 23]: 5
- Enrichment_score [4, 24]: 0.8174
- ListHits [4, 24]: 3
- Enrichment_score [4, 25]: 2.951
- ListHits [4, 25]: 33
- Enrichment_score [4, 26]: 1.531
- ListHits [4, 26]: 1
- Enrichment_score [4, 27]: 2.188
- ListHits [4, 27]: 14
- Enrichment_score [4, 28]: 1.406
- ListHits [4, 28]: 1
- Enrichment_score [4, 29]: 2.775
- ListHits [4, 29]: 8
- Enrichment_score [4, 30]: 3.221
- ListHits [4, 30]: 13
- Enrichment_score [4, 31]: 3.154
- ListHits [4, 31]: 2
- Enrichment_score [4, 32]: 6.195
- ListHits [4, 32]: 5
- Enrichment_score [4, 33]: 5.4777
- ListHits [4, 33]: 12
- Enrichment_score [4, 34]: 2.739
- ListHits [4, 34]: 1
- Enrichment_score [4, 35]: 5.782
- ListHits [4, 35]: 1
- Enrichment_score [4, 36]: 2.041
- ListHits [4, 36]: 2
- Enrichment_score [4, 37]: 1.859
- ListHits [4, 37]: 1
- Enrichment_score [4, 38]: 2.168
- ListHits [4, 38]: 2
- Enrichment_score [4, 39]: 0.8531
- ListHits [4, 39]: 1
- Enrichment_score [4, 40]: 1.837
- ListHits [4, 40]: 3
- Enrichment_score [4, 41]: 1.735
- ListHits [4, 41]: 1
- Enrichment_score [4, 42]: 3.294
- ListHits [4, 42]: 5
- Enrichment_score [4, 43]: 0.9637
- ListHits [4, 43]: 2
- Enrichment_score [4, 44]: 3.186
- ListHits [4, 44]: 3
- Enrichment_score [4, 45]: 1.837
- ListHits [4, 45]: 3
- Enrichment_score [4, 46]: 6.155
- ListHits [4, 46]: 55
- Enrichment_score [4, 47]: 0.9548
- ListHits [4, 47]: 2
- Enrichment_score [4, 48]: 1.706
- ListHits [4, 48]: 2
- Enrichment_score [4, 49]: 1.652
- ListHits [4, 49]: 2
- Enrichment_score [4, 50]: 1.323
- ListHits [4, 50]: 3
- Enrichment_score [4, 51]: 1.679
- ListHits [4, 51]: 4
- Enrichment_score [4, 52]: 1.369
- ListHits [4, 52]: 2
- Enrichment_score ([4]; KEGG ko02010 ABC transporters): 2.788
- ListHits ([4]; KEGG ko02010 ABC transporters): 3
- Enrichment_score [4, 53]: 1.1072
- ListHits [4, 53]: 1
- Enrichment_score [4, 54]: 0.9727
- ListHits [4, 54]: 2
- Enrichment_score [4, 55]: 1.665
- ListHits [4, 55]: 4
- Enrichment_score [4, 56]: 0.9376
- ListHits [4, 56]: 2
- Enrichment_score [4, 57]: 0.7381
- ListHits [4, 57]: 2
- Enrichment_score [4, 58]: 1.411
- ListHits [4, 58]: 18
- Enrichment_score [4, 59]: 0.6505
- ListHits [4, 59]: 1
- Enrichment_score ([4]; KEGG ko04146 Peroxisome): 1.786
- ListHits ([4]; KEGG ko04146 Peroxisome): 7
- Enrichment_score [4, 60]: 1.229
- ListHits [4, 60]: 3
- Enrichment_score [4, 61]: 1.436
- ListHits [4, 61]: 4
- Enrichment_score ([4]; KEGG ko04360 Axon guidance): 1.183
- ListHits ([4]; KEGG ko04360 Axon guidance): 2
- Enrichment_score [4, 62]: 1.8259
- ListHits [4, 62]: 2
- Enrichment_score [4, 63]: 1.8259
- ListHits [4, 63]: 2
- Enrichment_score [4, 64]: 7.434
- ListHits [4, 64]: 2
- Enrichment_score [4, 65]: 1.449
- ListHits [4, 65]: 12
- Enrichment_score [4, 66]: 1.9637
- ListHits [4, 66]: 2
- Enrichment_score [4, 67]: 2.365
- ListHits [4, 67]: 2
- Enrichment_score [4, 68]: 1.794
- ListHits [4, 68]: 2
- Enrichment_score [4, 69]: 1.03
- ListHits [4, 69]: 2
- Enrichment_score [4, 70]: 1.352
- ListHits [4, 70]: 2
- Enrichment_score [4, 71]: 1.239
- ListHits [4, 71]: 1
- Enrichment_score [4, 72]: 2.42
- ListHits [4, 72]: 4
- Enrichment_score ([4]; KEGG ko04727 GABAergic synapse): 1.466
- ListHits ([4]; KEGG ko04727 GABAergic synapse): 2
- Enrichment_score [4, 73]: 1.14
- ListHits [4, 73]: 3
- Enrichment_score [4, 74]: 2.775
- ListHits [4, 74]: 4
- Enrichment_score [4, 75]: 0.8531
- ListHits [4, 75]: 2
- Enrichment_score [4, 76]: 0.5913
- ListHits [4, 76]: 2
- Enrichment_score ([4]; KEGG ko04924 Renin secretion): 1.859
- ListHits ([4]; KEGG ko04924 Renin secretion): 2
- Enrichment_score [4, 77]: 6.938
- ListHits [4, 77]: 2
- Enrichment_score [4, 78]: 4.337
- ListHits [4, 78]: 1
- Enrichment_score ([4]; KEGG ko04976 Bile secretion): 2.838
- ListHits ([4]; KEGG ko04976 Bile secretion): 3
- Expression levels of growth-related genes in tobacco roots ([4]; RNA-seq, GO growth, vs DMSO): differentially elevated the expression levels of most growth‐related genes
- Expression levels of RBOHs, MYB44, TGA2, WRKY19, EFR, FLS2, PR1 and PDF1.4 in tobacco roots ([4]; RNA-seq, vs DMSO): significantly increased the expression levels
- Antioxidant genes (GO antioxidant activity) up-regulated [4, 79]: 60 of 61
- Immune genes (GO immune system process) up-regulated [4, 79]: 70 of 82
- Environmental adaptation-related genes (KEGG) up-regulated ([4]; tobacco roots, coregulated genes, vs DMSO): 22 of 29
- Kd [5]: 1770 nM
- Expression of FRK1 in roots [6]: did not affect the expression levels
- Growth of roots and shoots of Arabidopsis Col-0 seedlings [7]: did not affect the growth of roots and shoots
- Control of tomato bacterial wilt [8]: alleviated soil‐borne diseases
